Laboratory results reported in ChEMBL document CHEMBL3508693 (2016).

Experiments:
[1] = target: T1, CYP2A6 (Homo sapiens, UniProt P11509); assay: Inhibitory activity of 200 uM SPP100 on 37 Pmoles of cDNA-derived CYP2A6 enzyme in microsome prepared from human lymphoblastoid cell line; format: ADME, microsomes; set-up: conc 200 uM, interact cpd conc 3 uM; conditions: probe coumarine
T1 sequence (P11509 whole entry): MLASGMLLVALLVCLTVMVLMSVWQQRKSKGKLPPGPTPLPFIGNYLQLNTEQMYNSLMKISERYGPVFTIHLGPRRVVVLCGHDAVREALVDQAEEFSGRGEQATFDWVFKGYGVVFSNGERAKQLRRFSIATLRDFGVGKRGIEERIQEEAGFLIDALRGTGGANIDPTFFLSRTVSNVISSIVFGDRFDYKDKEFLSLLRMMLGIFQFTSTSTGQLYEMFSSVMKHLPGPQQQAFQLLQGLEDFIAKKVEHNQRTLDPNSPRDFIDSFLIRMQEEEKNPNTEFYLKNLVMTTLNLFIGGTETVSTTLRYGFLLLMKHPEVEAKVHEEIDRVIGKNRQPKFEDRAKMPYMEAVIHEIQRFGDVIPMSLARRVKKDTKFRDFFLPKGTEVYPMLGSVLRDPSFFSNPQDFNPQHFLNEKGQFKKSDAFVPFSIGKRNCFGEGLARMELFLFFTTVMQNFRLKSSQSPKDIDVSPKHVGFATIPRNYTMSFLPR

[2] = Concentration of radioactivity in the liver following repeated oral administration of [14C] aliskiren hemifumarate at 100 mg.Kg-1 level studied at 2h after 10th dose in rat; format: ADME, organism-based, Albino HAN:WIST; conditions: in vivo
[3] = Total excretion (0-72h) of radioactivity in urine, faeces and cage wash following single intravenous dose of 10 mg.Kg-1 [14C] aliskiren hemifumarate in mouse; format: ADME, organism-based, TgRasH2, Urine/Feces; conditions: in vivo
[4] = Excretion (24h) of radioactivity in urine following intravenous administration of [14C] aliskiren hemifumarate at 10 mg.Kg-1 level in rat; format: ADME, organism-based, Lister-Hooded; conditions: in vivo
[5] = target: Cytochrome P450 3A4 (Homo sapiens, UniProt P08684); assay: Activity of human recombinant CYP3A4 assessed as enzyme contribution (% total relative CL) towards [14C]SPP100 hemifumarate metabolism in human liver microsome; format: ADME; conditions: microsomes
[6] = % of radioactivity (24h) recovered in urine following single intravenous administration of 10 mg.Kg-1 [14C] aliskiren hemifumarate in male rat; format: ADME, organism-based, HAN:WIST(SPF); conditions: in vivo
[7] = Excretion (48h) of radioactivity in urine following oral administration of [14C] aliskiren hemifumarate at 100 mg.Kg-1 level in rat; format: ADME, organism-based, Lister-Hooded; conditions: in vivo
[8] = Effect of single oral dose of 300 mg [14C]SPP100 on ECG values studied in healthy men; format: toxicity, organism-based; conditions: human, in vivo
[9] = Mean excretion of radioactivity (24-48h) in urine and faeces following single intravenous dose of 10 mg.Kg-1 [14C] aliskiren hemifumarate in rat; format: ADME, organism-based, Albino HAN:WIST, Urine/Feces; conditions: in vivo
[10] = Excretion of radioactivity (48-72h) in faeces following single oral dose of 500 mg.Kg-1 [14C] aliskiren hemifumarate in mouse; format: ADME, organism-based, TgRasH2, Feces; conditions: in vivo
[11] = Apparent Km value of metabolism of [14C] aliskiren hemifumarate studied in human liver microsome; format: ADME; conditions: microsomes
[12] = Excretion of radioactivity (0-24h) in urine following single oral dose of 100 mg.Kg-1 [14C] aliskiren hemifumarate in rat; format: ADME, organism-based, Albino HAN:WIST; conditions: in vivo
[13] = Tmax (0-168h) of total radioactivity following single oral administration of [14C] aliskiren hemifumarate at 3 mg.Kg-1 level in marmoset; format: ADME, organism-based, Callithrix jacchus, Plasma; conditions: in vivo
[14] = Cmax/dose of aliskiren hemifumarate following 4 week oral dietary dosing of aliskiren hemifumarate at 500 mg.Kg-1 level in female mouse; format: ADME, organism-based, CB6F1-TGrasH2; conditions: in vivo, 672 h
[15] = Cmax/dose of aliskiren hemifumarate following 4 week oral dietary dosing of aliskiren hemifumarate at 1500 mg.Kg-1 level in female mouse; format: ADME, organism-based, CB6F1-TGrasH2; conditions: in vivo, 672 h
[16] = Hepatic blood flow (0-168h) of unlabeled aliskiren hemifumarate following single intravenous administration of aliskiren hemifumarate at 1 mg.Kg-1 level in marmoset; format: ADME, organism-based, Callithrix jacchus, Liver; conditions: in vivo
[17] = target: hERG (KCNH2) (Homo sapiens, UniProt Q12809); assay: Effects of 1000 uM aliskiren hemifumarate on current through cloned hERG channel expressed in human embryonic kidney cell; format: cell-based; set-up: conc 1000 uM, dose level High; conditions: HEK293 cells that express cloned hERG channel, read-out: Inhibitory activity
[18] = Cmax of aliskiren hemifumarate following single dosing of SPP100B oral solution at 80 mg level studied on day 1 in men; format: ADME, organism-based; conditions: male, human, plasma
[19] = Cmax (0-168h) of unlabeled aliskiren hemifumarate following single oral administration of aliskiren hemifumarate at 3 mg.Kg-1 level in marmoset; format: ADME, organism-based, Callithrix jacchus, Plasma; conditions: in vivo
[20] = AUC infinity of aliskiren hemifumarate following 2 week oral dosing of aliskiren hemifumarate at 50 mg.Kg-1 level studied on day 1 in male Callithrix jacchus; format: ADME, organism-based; conditions: marmoset, plasma, read-out: AUC infinity
[21] = AUC (0-24h)/dose of aliskiren hemifumarate following 4 week oral dietary dosing of aliskiren hemifumarate at 1500 mg.Kg-1 level in male mouse; format: ADME, organism-based, CB6F1-TGrasH2, Plasma; conditions: in vivo
[22] = Tmax of aliskiren hemifumarate following 2 week oral dosing of aliskiren hemifumarate at 100 mg.Kg-1 level studied on day 14 in male Callithrix jacchus; format: ADME, organism-based; conditions: marmoset, plasma
[23] = Tmax of aliskiren hemifumarate following single dosing of SPP100B oral solution at 40 mg level studied on day 1 in men; format: ADME, organism-based; conditions: male, human, plasma
[24] = t1/2 of aliskiren hemifumarate following 2 week oral dosing of aliskiren hemifumarate at 100 mg.Kg-1 level studied on day 1 in male Callithrix jacchus; format: ADME, organism-based; conditions: marmoset, plasma
[25] = Cmax of aliskiren hemifumarate following single dosing of SPP100B oral solution at 640 mg level studied on day 1 in men; format: ADME, organism-based; conditions: male, human, plasma
[26] = AUCspec of aliskiren hemifumarate following 2 week oral dosing of aliskiren hemifumarate at 100 mg.Kg-1 level studied on day 1 in male Callithrix jacchus; format: ADME, organism-based, Plasma; conditions: marmoset, in vivo, 336 h
[27] = Effect of 2 week oral dosing of aliskiren hemifumarate at 50 mg.Kg-1 level on hematological parameter values in female Callithrix jacchus; format: toxicity, organism-based, Plasma; conditions: marmoset, in vivo, 336 h
[28] = Tmax of aliskiren hemifumarate following 2 week oral dosing of aliskiren hemifumarate at 10 mg.Kg-1 level studied on […] in male Callithrix jacchus; format: ADME, organism-based; conditions: marmoset, plasma
[29] = AUC/dose (0-96h) of unlabeled aliskiren hemifumarate following oral administration of aliskiren hemifumarate at 100 mg.Kg-1 level in rat; format: ADME, organism-based, Albino HAN:WIST, Plasma; conditions: in vivo

Chain of hERG (KCNH2) (Q12809 whole entry): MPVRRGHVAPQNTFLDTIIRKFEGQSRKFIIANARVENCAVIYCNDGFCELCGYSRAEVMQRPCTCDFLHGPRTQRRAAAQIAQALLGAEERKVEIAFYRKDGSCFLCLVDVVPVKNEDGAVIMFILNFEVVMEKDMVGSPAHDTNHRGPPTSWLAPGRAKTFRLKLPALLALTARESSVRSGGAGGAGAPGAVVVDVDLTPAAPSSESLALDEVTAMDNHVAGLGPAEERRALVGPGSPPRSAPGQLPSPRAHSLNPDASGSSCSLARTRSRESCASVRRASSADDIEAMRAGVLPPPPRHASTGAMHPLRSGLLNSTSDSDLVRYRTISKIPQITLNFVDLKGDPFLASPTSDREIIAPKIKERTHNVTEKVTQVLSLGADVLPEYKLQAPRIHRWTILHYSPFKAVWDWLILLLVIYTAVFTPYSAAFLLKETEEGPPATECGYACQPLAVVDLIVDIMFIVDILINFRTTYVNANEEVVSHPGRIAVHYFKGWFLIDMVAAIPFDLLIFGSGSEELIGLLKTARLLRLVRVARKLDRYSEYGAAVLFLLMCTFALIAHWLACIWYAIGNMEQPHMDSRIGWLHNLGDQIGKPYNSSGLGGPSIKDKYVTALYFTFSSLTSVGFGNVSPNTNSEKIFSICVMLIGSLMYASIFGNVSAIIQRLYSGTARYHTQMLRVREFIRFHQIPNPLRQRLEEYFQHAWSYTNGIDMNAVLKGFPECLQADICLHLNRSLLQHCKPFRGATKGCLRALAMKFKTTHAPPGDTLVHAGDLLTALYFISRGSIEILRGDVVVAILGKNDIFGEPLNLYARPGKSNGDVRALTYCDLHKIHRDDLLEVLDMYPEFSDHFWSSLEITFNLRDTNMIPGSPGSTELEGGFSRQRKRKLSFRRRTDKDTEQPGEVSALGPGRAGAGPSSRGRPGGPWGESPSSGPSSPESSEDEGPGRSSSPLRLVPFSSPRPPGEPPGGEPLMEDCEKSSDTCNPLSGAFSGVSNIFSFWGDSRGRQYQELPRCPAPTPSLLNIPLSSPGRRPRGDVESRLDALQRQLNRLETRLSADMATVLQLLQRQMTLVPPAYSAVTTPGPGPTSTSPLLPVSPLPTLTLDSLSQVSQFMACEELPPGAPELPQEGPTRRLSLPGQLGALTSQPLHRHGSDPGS
Chain of Cytochrome P450 3A4 (P08684 whole entry): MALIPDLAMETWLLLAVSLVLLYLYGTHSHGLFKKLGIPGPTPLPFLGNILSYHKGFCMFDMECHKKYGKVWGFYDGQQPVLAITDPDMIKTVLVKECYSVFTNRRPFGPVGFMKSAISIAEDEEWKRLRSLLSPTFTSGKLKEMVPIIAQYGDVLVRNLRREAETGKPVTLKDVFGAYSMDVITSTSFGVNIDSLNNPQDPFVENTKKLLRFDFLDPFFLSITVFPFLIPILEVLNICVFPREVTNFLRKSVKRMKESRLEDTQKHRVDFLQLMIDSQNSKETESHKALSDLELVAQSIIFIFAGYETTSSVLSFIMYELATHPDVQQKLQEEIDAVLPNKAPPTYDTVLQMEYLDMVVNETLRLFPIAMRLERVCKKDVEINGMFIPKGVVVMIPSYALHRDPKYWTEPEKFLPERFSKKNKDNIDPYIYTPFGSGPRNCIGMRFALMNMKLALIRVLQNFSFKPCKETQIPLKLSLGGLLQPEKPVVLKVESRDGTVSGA

SMILES: COCCCOc1cc(C[C@@H](C[C@H](N)[C@@H](O)C[C@H](C(=O)NCC(C)(C)C(N)=O)C(C)C)C(C)C)ccc1OC
- inhibition at 200 µM [1]: 2.6%

SMILES: COCCCOc1cc(C[C@@H](C[C@H](N)[C@@H](O)C[C@H](C(=O)NCC([14CH3])([14CH3])C(N)=O)C(C)C)C(C)C)ccc1OC.O=C(O)/C=C/C(=O)O
- Radiolabel recovery [2]: OUTCOME = Detected
- Radiolabel recovery [3]: 93.38%
- Radiolabel recovery [4]: 10%
- Activity [5]: 99.6%
- Radiolabel recovery [6]: 6.2%
- Radiolabel recovery [7]: 0.576%
- ECG [8]: OUTCOME = ECG findings were all considered as normal
- Radiolabel recovery [9]: 28.9%
- Radiolabel recovery [10]: 0.16%
- Km [11]: 43.8 µM
- Radiolabel recovery [12]: 0.47%
- Tmax [13]: 2 h

SMILES: COCCCOc1cc(C[C@@H](C[C@H](N)[C@@H](O)C[C@H](C(=O)NCC(C)(C)C(N)=O)C(C)C)C(C)C)ccc1OC.COCCCOc1cc(C[C@@H](C[C@H](N)[C@@H](O)C[C@H](C(=O)NCC(C)(C)C(N)=O)C(C)C)C(C)C)ccc1OC.O=C(O)/C=C/C(=O)O [ALISKIREN FUMARATE]
- Cmax normalised [14]: 0.128 (ng/mL)/(mg/kg/day)
- Cmax normalised [15]: 0.68 (ng/mL)/(mg/kg/day)
- Hepatic blood flow [16]: 2.8 L·h/kg
- inhibition at 1000 µM [17]: 32%
- Cmax [18]: 11 ng/mL
- Cmax [19]: 395 nM
- AUC(0-inf) [20]: 64000 ng·h/mL
- AUC normalised [21]: 2.76 ((ng/mL).hours)/(mg/kg/day)
- Tmax [22]: 2 h
- Tmax [23]: 1.6 h
- half-life [24]: 12.8 h
- Cmax [25]: 146 ng/mL
- AUC normalised [26]: 0.764 ((ug.h.ml-1)/(mg/kg)
- Change in hematology [27]: OUTCOME = Hematological parameter values did not differ from control values. No animals died during the study.
- Tmax [28]: 2 h
- AUC normalised [29]: 0.03 (umol.h/L)/(mg/kg)
